Data taken from US20220340566A1, “BENZYL AMINE-CONTAINING 5,6-HETEROAROMATIC COMPOUNDS USEFUL AGAINST MYCOBACTERIAL INFECTION” (priority 2019, published 2022).

How the values were obtained:
[1] = test system: Mycobacterium avium ATCC700898; assay: Determination of IC85 against M. avium (resazurin fluorescence); format: cell-based; settings: Mycobacterium avium, ATCC700898, M. avium ATCC700898, CAMHB medium, 37° C., 3 days incubation then resazurin, fluorescence one day later; read-out: IC85
[2] = Metabolic stability test in pooled human liver microsomes; format: in vitro ADME; settings: human liver microsomes 0.5 mg protein/mL, 1 mmol/L NADPH, 37° C., 30 minutes
Outline: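 Remaining-rate readout: parent compound left after 30 min versus 0 min (set as 100%), measured by LC/MS/MS or SPE/MS. Oxidative reaction ran at 37° C. with 1 mmol/L NADPH, 0.5 mg protein/mL pooled human microsomes, 50 mmol/L Tris-HCl pH 7.4 buffer.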

Compound	IC85 [1] [µM]	MS_h_% (remaining amount of compound after reaction, 0 minute = 100%) [2] [%]
Cc1ccn2nc(C(F)(F)F)c(C(=O)NCc3ccc(N4CCN(c5ccc(OC(F)(F)F)cc5)[C@@H](C)C4)c(F)c3)c2c1.Cl [Compound I-1-126]	0.27	77
CCc1nc2cc(F)ccn2c1C(=O)NCc1ccc(N2CCC(c3ccc(OC(F)(F)F)cc3)CC2)c(Cl)c1.Cl [Compound I-1-127]	0.0077	93
COc1ccn2nc(C)c(C(=O)NCc3ccc(N4CCC(c5ccc(OC(F)(F)F)cc5)CC4)c(Cl)c3)c2c1.Cl [Compound I-1-128]	0.018	85
COc1ccn2nc(C)c(C(=O)NCc3cc(F)c(N4CCN(c5ccc(OC(F)(F)F)cc5)[C@@H](C)C4)c(F)c3)c2c1.Cl [Compound I-1-129]	0.0068	80
COc1ccn2nc(C)c(C(=O)NCc3ccc(N4CCN(c5ccc(OC(F)(F)F)cc5)[C@@H](C)C4)c(F)c3F)c2c1.Cl [Compound I-1-130]	0.049	74
COc1ccn2nc(C)c(C(=O)NCc3cc(F)c(N4CCN(c5ccc(OC(F)(F)F)cc5)[C@@H](C)C4)cc3F)c2c1.Cl [Compound I-1-131]	0.045	73
COc1ccn2nc(C)c(C(=O)NCc3ccc(N4CCN(c5ccc(OC(F)(F)F)cc5)[C@@H](C)C4)c(Cl)c3)c2c1.Cl [Compound I-1-132]	0.014	62
COc1ccn2nc(C)c(C(=O)NCc3cc(F)c(N4CCC(c5ccc(OC(F)(F)F)cc5)CC4)c(F)c3)c2c1.Cl [Compound I-1-133]	0.019	81
CCc1nc2ccc(Cl)cn2c1C(=O)NCc1ccc(N2C[C@H](C)N(c3ccc(OCC(F)(F)F)nc3)C[C@H]2C)c(F)c1.Cl [Compound I-1-134]	0.043	65
CCc1nc2cc(F)ccn2c1C(=O)NCc1ccc(N2C[C@H](C)N(c3ccc(OCC(F)(F)F)nc3)C[C@H]2C)c(F)c1.Cl [Compound I-1-135]	0.12	75
CCc1nc2cc(F)ccn2c1C(=O)NCc1ccc(N2C[C@H](C)N(c3ccc(OC(F)(F)F)cc3)C[C@H]2C)c(F)c1.Cl [Compound I-1-136]	0.016	86
Cc1nc2ccc(Cl)cn2c1C(=O)NCc1ccc(N2C[C@H](C)N(c3ccc(OCC(F)(F)F)nc3)C[C@H]2C)c(F)c1.Cl [Compound I-1-137]	0.1	91
CCc1nc2ccc(Cl)cn2c1C(=O)NCc1ccc(C2=CCC(c3ccc(OC(F)(F)F)cc3)CC2)c(F)c1.Cl (stereo not shown) [Compound I-1-138]	0.0068	83
CCc1nc2ccc(Cl)cn2c1C(=O)NCc1ccc(N2CCN(c3ccc(OC(F)(F)F)cc3)[C@@H](C)C2)c(Cl)c1.Cl [Compound I-1-139]	0.009	61
Cc1nc2ccc(Cl)cn2c1C(=O)NCc1ccc(N2CCN(c3ccc(OC(F)(F)F)cc3)[C@@H](C)C2)c(Cl)c1.Cl [Compound I-1-140]	0.0057	89
CCc1nc2cc(F)ccn2c1C(=O)NCc1ccc(N2CCN(c3ccc(OC(F)(F)F)cc3)[C@@H](C)C2)c(Cl)c1.Cl [Compound I-1-141]	0.002	93
CCc1nc2ccc(Cl)cn2c1C(=O)NCc1ccc(C2CCN(c3ccc(OCC(F)(F)F)nc3)CC2)cc1F.Cl [Compound I-1-142]	0.03	71
CCOc1ccc(N2CCC(c3ccc(CNC(=O)c4c(CC)nc5ccc(Cl)cn45)c(F)c3)CC2)cc1.Cl [Compound I-1-143]	0.023	77
CCc1nc2ccc(Cl)cn2c1C(=O)NCc1ccc(C2CCN(c3ccc(C(C)(C)C)cc3)CC2)cc1F.Cl [Compound I-1-144]	0.017	67
CCCCOc1ccc(N2CCC(c3ccc(CNC(=O)c4c(CC)nc5ccc(Cl)cn45)c(F)c3)CC2)cc1.Cl [Compound I-1-145]	0.016	80
CCc1nc2cc(F)ccn2c1C(=O)NCc1ccc(C2CCN(c3ccc(OCC(F)(F)F)nc3)CC2)cc1F.Cl [Compound I-1-146]	0.026	85
CCOc1ccc(N2CCC(c3ccc(CNC(=O)c4c(CC)nc5cc(F)ccn45)c(F)c3)CC2)cc1.Cl [Compound I-1-147]	0.0083	91

Compound	IC85 [1] [µM]	MS_h_% (remaining amount of compound after reaction, 0 minute = 100%) [2] [%]
CCc1nc2cc(F)ccn2c1C(=O)NCc1ccc(C2CCN(c3ccc(C)cc3)CC2)cc1F.Cl [Compound I-1-148]	0.0054	73
CCc1nc2cc(F)ccn2c1C(=O)NCc1ccc(C2CCN(c3ccc(C(C)(C)C)cc3)CC2)cc1F.Cl [Compound I-1-149]	0.015	63
CCc1nc2cc(F)ccn2c1C(=O)NCc1ccc(C2CCN(c3ccc(C(F)(F)F)cc3)CC2)cc1F.Cl [Compound I-1-150]	0.0024	65
CCCCOc1ccc(N2CCC(c3ccc(CNC(=O)c4c(CC)nc5cc(F)ccn45)c(F)c3)CC2)cc1.Cl [Compound I-1-151]	0.01	88
Cc1nn2ccc(F)cc2c1C(=O)NCc1ccc(N2CCN(c3ccc(OC(F)(F)F)cc3)[C@@H](C)C2)c(F)c1.Cl [Compound I-1-152]	0.11	87
COc1ccn2nc(C)c(C(=O)NCc3ccc(N4C[C@H](C)N(c5ccc(OC(F)(F)F)cc5)C[C@H]4C)c(F)c3)c2c1.Cl [Compound I-1-153]	0.031	72
Cc1nc2cc(F)ccn2c1C(=O)NCc1ccc(N2CCC(c3ccc(OC(F)(F)F)cc3)CC2)c(F)c1 [Compound I-2-1]	0.016	106
COc1ccn2c(C(=O)NCc3ccc(N4CCN(c5ccc(OC(F)(F)F)cc5)[C@@H](C)C4)c(F)c3)c(C)nc2c1 [Compound I-2-2]	0.37	97.7
CCc1nc2cc(F)ccn2c1C(=O)NCc1ccc(N2CCN(c3ccc(OCC(F)(F)F)nc3)[C@@H](CC)C2)c(F)c1.Cl [Compound I-2-3]	0.017	90.3
CCc1nc2cc(F)ccn2c1C(=O)NCc1ccc(N2CCN(c3ccc(OC(F)(F)F)cc3)[C@@H](CC)C2)c(F)c1.Cl [Compound I-2-4]	0.0065	90.1
Cc1nc2ccc(F)cn2c1C(=O)NCc1ccc(N2CCN(c3ccc(C(F)(F)F)cn3)CC2)c(C(F)(F)F)c1 [Compound I-2-5]	0.42	81.8
CCCC[C@H]1CN(c2ccc(CNC(=O)c3c(CC)nc4cc(F)ccn34)cc2F)CCN1c1ccc(OC(F)(F)F)cc1.Cl [Compound I-2-6]	0.0044	80.8
Cc1cn2c(C(=O)NCc3ccc(N4CCN(c5ccc(C(F)(F)F)cn5)CC4)c(C(F)(F)F)c3)c(C)nc2cc1Cl [Compound I-2-7]	0.59	79.3
Cc1nc2ccc(F)cn2c1C(=O)NCc1ccc(N2CC(c3ccc(OC(F)(F)F)cc3)C2)c(F)c1 [Compound I-2-8]	0.13	74.9
CC[C@H]1CN(c2ccc(CNC(=O)c3c(C)nn4ccc(OC)cc34)cc2F)CCN1c1ccc(OC(F)(F)F)cc1.Cl [Compound I-2-9]	0.019	73.5
CCc1nc2ccc(Cl)cn2c1C(=O)NCc1ccc(N2CCN(c3ccc(OC(F)(F)F)cc3F)[C@@H](CC)C2)c(F)c1.Cl [Compound I-2-10]	0.023	72.2
Cc1nc2ccc(Br)cn2c1C(=O)NCc1ccc(N2CCN(c3ccc(C(F)(F)F)cn3)CC2)c(F)c1 [Compound I-2-11]	0.02	71.7
Cc1ccn2c(C(=O)NCc3ccc(N4CCN(c5ccc(OC(F)(F)F)cc5)CC4)c(F)c3)c(C)nc2c1 [Compound I-2-12]	0.023	71.4
Cc1ccn2c(C(=O)NCc3ccc(N4CCN(c5ccc(C(F)(F)F)cn5)CC4)c(C(F)(F)F)c3)c(C)nc2c1 [Compound I-2-13]	0.35	67.6
Cc1nc2ccc(Br)cn2c1C(=O)NCc1ccc(N2CCN(c3ccc(OC(F)(F)F)cc3)[C@@H](C)C2)c(F)c1 [Compound I-2-14]	0.0045	67
Cc1ccn2c(C(=O)NCc3ccc(N4CCN(c5ccc(OC(F)(F)F)cc5)[C@@H](C)C4)c(C(F)(F)F)c3)c(C)nc2c1 [Compound I-2-15]	0.25	59.2
CCc1nc2ccc(Cl)cn2c1C(=O)NCc1ccc(N2CCN(c3ccc(OC(F)(F)F)cc3)C3(CCCC3)C2)c(F)c1 [Compound I-2-16]	0.086	58.2
